Results published in patent US20220281886A1, “NATRIURETIC PEPTIDE RECEPTOR A AGONISTS USEFUL FOR THE TREATMENT OF CARDIOMETABOLIC DISEASES, KIDNEY DISEASE AND DIABETES” (Merck Sharp & Dohme Corp., priority 2019, published 2022).

Target: T1, hNPRA (Homo sapiens, UniProt P16066)
T1 construct: expressed in transfected cells
T1 sequence (P16066 33-1061): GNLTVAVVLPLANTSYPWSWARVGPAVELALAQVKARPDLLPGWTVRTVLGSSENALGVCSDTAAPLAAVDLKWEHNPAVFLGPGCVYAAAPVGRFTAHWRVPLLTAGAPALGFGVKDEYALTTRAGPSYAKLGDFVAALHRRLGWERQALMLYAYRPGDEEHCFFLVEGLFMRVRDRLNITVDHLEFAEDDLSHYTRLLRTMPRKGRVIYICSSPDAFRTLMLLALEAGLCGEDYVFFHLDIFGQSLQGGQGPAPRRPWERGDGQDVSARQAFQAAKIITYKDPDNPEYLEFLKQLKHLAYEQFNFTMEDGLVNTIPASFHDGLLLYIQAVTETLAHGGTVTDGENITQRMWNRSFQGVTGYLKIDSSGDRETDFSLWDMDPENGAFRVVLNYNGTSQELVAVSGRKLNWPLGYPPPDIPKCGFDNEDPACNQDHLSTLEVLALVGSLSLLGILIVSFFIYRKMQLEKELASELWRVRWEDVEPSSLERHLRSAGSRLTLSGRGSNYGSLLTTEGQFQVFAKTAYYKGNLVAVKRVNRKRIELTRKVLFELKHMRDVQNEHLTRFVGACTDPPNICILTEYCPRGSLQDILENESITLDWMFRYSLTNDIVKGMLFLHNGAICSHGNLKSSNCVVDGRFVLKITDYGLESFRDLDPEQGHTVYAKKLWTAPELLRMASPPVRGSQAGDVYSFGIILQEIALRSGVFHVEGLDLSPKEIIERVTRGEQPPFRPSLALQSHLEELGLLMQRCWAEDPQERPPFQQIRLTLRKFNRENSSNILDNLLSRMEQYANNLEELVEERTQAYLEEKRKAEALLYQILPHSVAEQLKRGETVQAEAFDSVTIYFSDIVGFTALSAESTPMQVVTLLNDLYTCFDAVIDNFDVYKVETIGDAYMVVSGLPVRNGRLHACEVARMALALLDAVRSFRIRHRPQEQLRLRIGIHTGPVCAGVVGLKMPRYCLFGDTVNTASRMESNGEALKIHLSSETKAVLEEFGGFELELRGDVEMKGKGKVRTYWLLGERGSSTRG
Test: NPRA Functional Cell Assay (cGMP HTRF)
Type: cell-based
Conditions: Human NPRA HEK JumpIn stable cells; cGMP by HTRF after 1 hour at 37° C.; 10-point dose response
In short: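 HEK JumpIn cells stably expressing human, rat or dog NPRA incubated 1 hour at 37° C with compound (10-point titration) in Opti-MEM buffer with 100 uM IBMX and 100 uM RO20. cGMP measured by HTRF against an on-plate calibration curve; EC50 from 4-parameter fit, positive control 10 nM rat-ANP (rat) or 50 nM h-ANP (human, dog).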

| EC50 [nM] | SMILES |
| --- | --- |
| 150 | CC1CCCCN1CC[C@@H](NC(=O)c1cc(F)c2nc3c(cc2c1)C[C@](F)(C(C)C)CC3)c1ccc(-c2ccnnc2)nc1 (mixture of isomers) [Example 44, rac-(7S)-4,7-difluoro-7-isopropyl-N-[rac-(1R)-3-(2-methylpiperidin-1-ium-1-yl)-1-(6-pyridazin-4-yl-3-pyridyl)propyl]-6,8-dihydro-5H-acridine-2-carboxamide;2,2,2-trifluoroacetate] |
| 375 | CC(C)[C@]1(F)CCc2nc3c(F)cc(C(=O)N[C@H](CCN4CCC5CCCCC5C4)c4ccc(-c5ccnnc5)nc4)cc3cc2C1 (mixture of isomers) [Example 42, rac-(7S)-4,7-difluoro-7-isopropyl-N-[rac-(1R)-3-(1,2,3,4,4a,5,6,7,8,8a-decahydroisoquinolin-2-ium-2-yl)-1-(6-pyridazin-4-yl-3-pyridyl)propyl]-6,8-dihydro-5H-acridine-2-carboxamide;2,2,2-trifluoroacetate] |
| 359 | COC(=O)CC1CCN(CC[C@@H](NC(=O)c2ccc3nc4c(cc3c2)C[C@@H](C2(C)CC2)CC4)c2cccc(C(=O)NC3CN(C)C3)c2)CC1 (racemic) [Example 65, methyl 2-[1-[rac-(3R)-3-[(1-methylazetidin-3-yl)carbamoyl]phenyl]-3-[[rac-(7S)-7-(1-methylcyclopropyl)-5,6,7,8-tetrahydroacridine-2-carbonyl]amino]propyl]-4-piperidyl]acetate] |
| 285 | CC(C)[C@]1(F)CCc2nc3c(F)cc(C(=O)N[C@H](CCN4CCCC4)c4ccc(-c5ccnnc5)nc4)cc3cc2C1 (racemic) [Example 35, rac-(7S)-4,7-difluoro-7-isopropyl-N-[rac-(1R)-1-(6-pyridazin-4-yl-3-pyridyl)-3-pyrrolidin-1-ium-1-yl-propyl]-6,8-dihydro-5H-acridine-2-carboxamide;2,2,2-trifluoroacetate] |
| 98.1 | CC(C)[C@]1(F)CCc2nc3c(F)cc(C(=O)N[C@H](CCN4CCCCC4CCO)c4ccc(-c5ccnnc5)nc4)cc3cc2C1 (mixture of isomers) [Example 53, rac-(7S)-4,7-difluoro-7-isopropyl-N-[rac-(1R)-3-[2-(2-hydroxyethyl)-1-piperidyl]-1-(6-pyridazin-4-yl-3-pyridyl)propyl]-6,8-dihydro-5H-acridine-2-carboxamide] |
| 203 | CC(C)[C@]1(F)CCc2nc3c(F)cc(C(=O)N[C@H](CCN4CCC(O)(CO)CC4)c4ccc(-c5ccnnc5)nc4)cc3cc2C1 [Example 19, (7S)-4,7-difluoro-N-[(1R)-3-[4-hydroxy-4-(hydroxymethyl)piperidin-1-yl]-1-(6-pyridazin-4-ylpyridin-3-yl)propyl]-7-(1-methylethyl)-5,6,7,8-tetrahydroacridine-2-carboxamide] |
| 217 | CC(C)[C@]1(F)CCc2nc3c(F)cc(C(=O)N[C@H](CCN4CCC(O)CC4)c4ccc(-c5cn[nH]c5)nc4)cc3cc2C1 [Example 32, (S)-N-((R)-1-(6-(1H-pyrazol-4-yl)pyridin-3-yl)-3-(4-hydroxypiperidin-1-yl)propyl)-4,7-difluoro-7-isopropyl-5,6,7,8-tetrahydroacridine-2-carboxamide] |
| 182 | CC(C)[C@]1(F)CCc2nc3c(F)cc(C(=O)N[C@H](CCN4CCC(CN5CCOCC5)CC4)c4ccc(-c5ccnnc5)nc4)cc3cc2C1 (racemic) [Example 60, rac-(7S)-4,7-difluoro-7-isopropyl-N-[rac-(1R)-3-[4-(morpholinomethyl)-1-piperidyl]-1-(6-pyridazin-4-yl-3-pyridyl)propyl]-6,8-dihydro-5H-acridine-2-carboxamide] |
| 114 | CC(C)[C@]1(F)CCc2nc3c(F)cc(C(=O)N[C@H](CCN4CCC(O)CC4)c4ccc(N5CCOC5=O)cc4)cc3cc2C1 [Example 6, (7S)-4,7-difluoro-N-{(1R)-3-(4-hydroxypiperidin-1-yl)-1-[4-(2-oxo-1,3-oxazolidin-3-yl)phenyl]propyl}-7-(1-methylethyl)-5,6,7,8-tetrahydroacridine-2-carboxamide] |
